IC50 data for 28 compounds are collected here from US8697739B2, “Bicyclic acetyl-CoA carboxylase inhibitors and uses thereof” (Novartis AG, priority 2010, dated 2014).

The term IC50 denotes the concentration at which inhibition is half-maximal.

T1 sequence (O00763 144-2458): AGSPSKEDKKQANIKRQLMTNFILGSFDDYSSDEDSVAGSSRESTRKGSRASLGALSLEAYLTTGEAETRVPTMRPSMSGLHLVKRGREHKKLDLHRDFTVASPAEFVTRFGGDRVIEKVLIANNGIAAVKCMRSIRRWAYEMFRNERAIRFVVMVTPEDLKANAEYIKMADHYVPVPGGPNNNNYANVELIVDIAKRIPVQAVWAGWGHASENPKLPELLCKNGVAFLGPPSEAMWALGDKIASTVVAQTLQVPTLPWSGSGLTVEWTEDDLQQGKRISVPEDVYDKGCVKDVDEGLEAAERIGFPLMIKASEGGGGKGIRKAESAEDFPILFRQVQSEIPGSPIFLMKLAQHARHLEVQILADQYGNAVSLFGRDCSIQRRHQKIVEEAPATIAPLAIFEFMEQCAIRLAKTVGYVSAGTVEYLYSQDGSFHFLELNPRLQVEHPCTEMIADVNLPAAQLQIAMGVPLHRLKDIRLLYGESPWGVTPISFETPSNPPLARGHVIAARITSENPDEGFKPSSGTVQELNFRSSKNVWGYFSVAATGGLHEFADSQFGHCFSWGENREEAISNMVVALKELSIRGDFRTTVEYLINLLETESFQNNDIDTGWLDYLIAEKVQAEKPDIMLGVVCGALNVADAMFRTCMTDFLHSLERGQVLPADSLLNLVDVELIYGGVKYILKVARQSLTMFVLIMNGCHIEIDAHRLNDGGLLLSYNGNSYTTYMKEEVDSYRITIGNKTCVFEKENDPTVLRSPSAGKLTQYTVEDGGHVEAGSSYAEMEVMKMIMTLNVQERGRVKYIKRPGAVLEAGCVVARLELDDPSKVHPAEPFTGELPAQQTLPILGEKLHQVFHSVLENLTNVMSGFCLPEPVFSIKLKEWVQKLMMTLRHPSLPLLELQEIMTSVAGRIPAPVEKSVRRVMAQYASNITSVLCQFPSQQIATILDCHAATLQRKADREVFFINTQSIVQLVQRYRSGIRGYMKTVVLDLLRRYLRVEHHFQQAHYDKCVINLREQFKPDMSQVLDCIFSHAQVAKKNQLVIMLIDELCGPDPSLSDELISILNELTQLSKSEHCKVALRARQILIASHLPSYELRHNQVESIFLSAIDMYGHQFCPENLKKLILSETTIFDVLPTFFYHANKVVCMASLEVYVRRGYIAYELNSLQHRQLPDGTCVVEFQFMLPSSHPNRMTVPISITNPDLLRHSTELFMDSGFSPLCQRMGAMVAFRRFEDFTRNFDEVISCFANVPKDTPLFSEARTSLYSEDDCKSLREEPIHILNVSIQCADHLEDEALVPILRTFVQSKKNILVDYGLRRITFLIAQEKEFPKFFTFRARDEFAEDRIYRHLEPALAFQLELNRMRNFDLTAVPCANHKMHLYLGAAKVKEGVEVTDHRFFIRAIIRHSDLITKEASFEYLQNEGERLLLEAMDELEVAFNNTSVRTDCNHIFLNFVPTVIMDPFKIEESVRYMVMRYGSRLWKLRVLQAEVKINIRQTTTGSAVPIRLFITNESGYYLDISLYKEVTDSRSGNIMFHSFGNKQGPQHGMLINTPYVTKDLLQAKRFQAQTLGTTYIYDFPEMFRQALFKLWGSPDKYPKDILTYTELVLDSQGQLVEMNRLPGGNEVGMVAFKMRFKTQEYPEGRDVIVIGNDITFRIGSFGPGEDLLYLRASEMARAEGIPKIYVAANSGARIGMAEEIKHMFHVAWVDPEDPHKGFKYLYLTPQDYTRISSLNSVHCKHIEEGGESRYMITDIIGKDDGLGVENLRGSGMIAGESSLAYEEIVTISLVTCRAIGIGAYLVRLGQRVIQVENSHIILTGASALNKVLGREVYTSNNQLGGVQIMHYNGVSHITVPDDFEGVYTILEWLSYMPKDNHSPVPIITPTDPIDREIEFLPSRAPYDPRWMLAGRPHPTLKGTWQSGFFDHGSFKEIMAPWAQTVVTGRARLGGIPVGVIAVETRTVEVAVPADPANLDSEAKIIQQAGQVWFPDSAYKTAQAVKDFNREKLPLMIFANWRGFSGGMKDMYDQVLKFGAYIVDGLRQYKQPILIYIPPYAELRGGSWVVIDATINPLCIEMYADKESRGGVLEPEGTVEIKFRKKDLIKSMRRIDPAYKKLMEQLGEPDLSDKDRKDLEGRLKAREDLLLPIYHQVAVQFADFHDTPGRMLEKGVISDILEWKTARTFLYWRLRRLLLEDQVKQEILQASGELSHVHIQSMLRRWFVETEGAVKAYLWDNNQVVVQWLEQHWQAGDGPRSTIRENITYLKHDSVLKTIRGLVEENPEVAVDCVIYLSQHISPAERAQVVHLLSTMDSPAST

The assay has as its target T1, human acetyl-CoA carboxylase 2 (ACC2) (Homo sapiens, UniProt O00763).
T1 construct: The cDNA encoding amino acids 144 to 2458 of human acetyl-CoA carboxylase 2; made in house; host or cells: Sf9 insect cells (baculovirus, pFastBac1)
The assay is described as follows: Acetyl-CoA carboxylase enzyme assay (malonyl-CoA formation by LC/MS/MS). Format: biochemical. Particulars: recombinant human ACC2 (aa 144-2458); read-out: IC50 ACC2. The method, boiled down:
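Malonyl-CoA formation was read by LC/MS/MS MRM against a [13C3]-malonyl-CoA internal standard, after acetic acid quench. The enzyme was baculovirus/Sf9-expressed human ACC2 residues 144–2458, given 15 minutes room-temperature compound preincubation in HEPES pH 7.5 buffer with MgCl2, citrate and DTT. Substrate solution held 50 μM acetyl-CoA, 120 μM ATP and 2 mM KHCO3.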
On to `C[C@@H](NC(=O)[C@H]1CC[C@H](NS(=O)(=O)c2cnc3c(c2)N(C)[C@@H]2CCCC[C@H]2N3C)CC1)c1ccc(F)cc1` [Example 139, (1R,4R)-4-((5aR,9aR)-5,10-dimethyl-5,5a,6,7,8,9,9a,10-octahydropyrido[3,2-b]quinoxaline-3-sulfonamido)-N-((R)-1-(4-fluorophenyl)ethyl)cyclohexanecarboxamide], for which the IC50 turned out to be 16 nM.
Turning to `Cc1ccnc2ncc(S(=O)(=O)N[C@H]3CC[C@H](C(=O)N[C@H](C)c4ccc(F)cc4)CC3)cc12` [Example 140, (1r,4R)-N-((R)-1-(4-fluorophenyl)ethyl)-4-(5-methyl-1,8-naphthyridine-3-sulfonamido)cyclohexanecarboxamide], the IC50 was determined as 986 nM.
Regarding `CC(C)N1CCNc2ncc(S(=O)(=O)N[C@H]3CC[C@H](C(=O)N[C@H](C)c4ccc(F)cc4)CC3)cc21` [Example 141, (1r,4R)-N-((R)-1-(4-fluorophenyl)ethyl)-4-(1-isopropyl-1,2,3,4-tetrahydropyrido[3,2-b]pyrazine-7-sulfonamido)cyclohexanecarboxamide], the IC50 worked out at 579 nM.
Consider `C[C@@H](NC(=O)[C@H]1CC[C@H](NS(=O)(=O)c2cnc3c(c2)NCCN3C)CC1)c1ccc(F)cc1` [Example 142, (1r,4R)-N-((R)-1-(4-fluorophenyl)ethyl)-4-(4-methyl-1,2,3,4-tetrahydropyrido[3,2-b]pyrazine-7-sulfonamido)cyclohexanecarboxamide], for which the IC50 worked out at 68 nM.
On to `CC(C)N1CCN(C(C)C)c2ncc(S(=O)(=O)N[C@H]3CC[C@H](C(=O)N[C@H](C)c4ccc(F)cc4)CC3)cc21` [Example 143, (1r,4R)-4-(1,4-diisopropyl-1,2,3,4-tetrahydropyrido[3,2-b]pyrazine-7-sulfonamido)-N-((R)-1-(4-fluorophenyl)ethyl)cyclohexanecarboxamide], for which the IC50 turned out to be 325 nM.
Take `C[C@@H](NC(=O)[C@H]1CC[C@H](NS(=O)(=O)c2ccc3c(c2)CCC(C)(C)O3)CC1)c1ccc(F)cc1` [Example 144, (1r,4R)-4-(2,2-dimethylchroman-6-sulfonamido)-N-((R)-1-(4-fluorophenyl)ethyl)cyclohexanecarboxamide]: the IC50 was determined as 314 nM.
As for `C[C@@H](NC(=O)[C@H]1CC[C@H](NS(=O)(=O)c2cnc3c(c2)CCCN3C)CC1)c1ccc(F)cc1` [Example 145, (1r,4R)-N-((R)-1-(4-fluorophenyl)ethyl)-4-(8-methyl-5,6,7,8-tetrahydro-1,8-naphthyridine-3-sulfonamido)cyclohexanecarboxamide], the IC50 was 128 nM.
The value for `C[C@H]1CCCN1C(=O)[C@H]1CC[C@H](NS(=O)(=O)c2ccc3ccccc3c2)CC1` [Example 146, N-((1S,4r)-4-((S)-2-methylpyrrolidine-1-carbonyl)cyclohexyl)naphthalene-2-sulfonamide] was 952 nM; that for `C[C@@H](NC(=O)[C@H]1CC[C@@H](NS(=O)(=O)c2ccc3ccccc3c2)CC1)c1ccc(F)cc1` [Example 147, (1s,4S)-N-((R)-1-(4-fluorophenyl)ethyl)-4-(naphthalene-2-sulfonamido)cyclohexanecarboxamide] was above 35000 nM; that for `C[C@@H](NC(=O)[C@H]1CC[C@H](NS(=O)(=O)c2ccc3c(c2)N(C)CCC3)CC1)c1ccc(F)cc1` [Example 148, (1r,4R)-N-((R)-1-(4-fluorophenyl)ethyl)-4-(1-methyl-1,2,3,4-tetrahydroquinoline-7-sulfonamido)cyclohexanecarboxamide] was 10 nM.
As to `C[C@@H](NC(=O)[C@H]1CC[C@H](NS(=O)(=O)c2ccc3c(c2)NCCN3)CC1)c1ccc(F)cc1` [Example 149, (1r,4R)-N-((R)-1-(4-fluorophenyl)ethyl)-4-(1,2,3,4-tetrahydroquinoxaline-6-sulfonamido)cyclohexanecarboxamide], the IC50 was found to be 290 nM.
On to `C[C@@H](NC(=O)[C@H]1CC[C@H](NS(=O)(=O)c2ccc3c(c2)NCCO3)CC1)c1ccc(F)cc1` [Example 150, (1r,4R)-4-(3,4-dihydro-2H-benzo[b][1,4]oxazine-6-sulfonamido)-N-((R)-1-(4-fluorophenyl)ethyl)cyclohexanecarboxamide], for which the IC50 was 105 nM.
Regarding `C[C@@H](NC(=O)[C@H]1CC[C@H](NS(=O)(=O)c2ccc3c(c2)NCCC3)CC1)c1ccc(F)cc1` [Example 151, (1r,4R)-N-((R)-1-(4-fluorophenyl)ethyl)-4-(1,2,3,4-tetrahydroquinoline-7-sulfonamido)cyclohexanecarboxamide], the IC50 is 47 nM.
Take `C[C@@H](NC(=O)[C@H]1CC[C@H](NS(=O)(=O)c2ccc3c(c2)CCCN3)CC1)c1ccc(F)cc1` [Example 152, (1r,4R)-N-((R)-1-(4-fluorophenyl)ethyl)-4-(1,2,3,4-tetrahydroquinoline-6-sulfonamido)cyclohexanecarboxamide]: the IC50 stood at 60 nM.
As to `C[C@@H](NC(=O)[C@H]1CC[C@H](NS(=O)(=O)c2cnc3c(c2)NCC(C)(C)CN3)CC1)c1ccc(F)cc1` [Example 153, (1r,4R)-4-(3,3-dimethyl-2,3,4,5-tetrahydro-1H-pyrido[2,3-b][1,4]diazepine-8-sulfonamido)-N-((R)-1-(4-fluorophenyl)ethyl)cyclohexanecarboxamide], the IC50 was 440 nM.
`C[C@@H](NC(=O)[C@H]1CC[C@@H](NS(=O)(=O)c2cnc3c(c2)NCC(C)(C)CN3)CC1)c1ccc(F)cc1` [Example 154, (1s,4S)-4-(3,3-dimethyl-2,3,4,5-tetrahydro-1H-pyrido[2,3-b][1,4]diazepine-8-sulfonamido)-N-((R)-1-(4-fluorophenyl)ethyl)cyclohexanecarboxamide]: the IC50 stood at 1990 nM.
As for `[2H]C([2H])([2H])N1C(=O)COc2ccc(S(=O)(=O)N[C@H]3CC[C@H](C(=O)N[C@H](C)c4ccc(F)cc4)CC3)cc21` [Example 155, (1r,4R)-N-((R)-1-(4-fluorophenyl)ethyl)-4-(3-oxo-4-(trideuteriomethyl)-3,4-dihydro-2H-benzo[b][1,4]oxazine-6-sulfonamido)cyclohexanecarboxamide], the IC50 is 175 nM.
As for `C[C@@H](NC(=O)[C@H]1CC[C@H](NS(=O)(=O)c2ccc3c(c2)N(C)C(=O)CO3)CC1)c1ccc(F)cc1` [Example 156, (1r,4R)-N-((R)-1-(4-fluorophenyl)ethyl)-4-(4-methyl-3-oxo-3,4-dihydro-2H-benzo[b][1,4]oxazine-6-sulfonamido)cyclohexanecarboxamide], the IC50 worked out at 183 nM.
Turning to `C[C@@H](NC(=O)[C@H]1CC[C@H](NS(=O)(=O)c2ccc3c(c2)N(C)CCO3)CC1)c1ccc(F)cc1` [Example 157, (1r,4R)-N-((R)-1-(4-fluorophenyl)ethyl)-4-(4-methyl-3,4-dihydro-2H-benzo[b][1,4]oxazine-6-sulfonamido)cyclohexanecarboxamide], the IC50 came out at 38 nM.
As to `[2H]C([2H])([2H])N1CCOc2ccc(S(=O)(=O)N[C@H]3CC[C@H](C(=O)N[C@H](C)c4ccc(F)cc4)CC3)cc21` [Example 158, (1r,4R)-N-((R)-1-(4-fluorophenyl)ethyl)-4-(4-(trideuteriomethyl)-3,4-dihydro-2H-benzo[b][1,4]oxazine-6-sulfonamido)cyclohexanecarboxamide], the IC50 was determined as 20 nM.
On to `CC(NC(=O)[C@H]1CC[C@H](NS(=O)(=O)c2ccc3c(c2)N(C)CCC3)CC1)c1ccccn1` (stereo partly shown) [Example 159, (1r,4r)-4-(1-methyl-1,2,3,4-tetrahydroquinoline-7-sulfonamido)-N-(1-(pyridin-2-yl)ethyl)cyclohexanecarboxamide], for which the half-maximal inhibitory concentration (IC50) stood at 345 nM.
The value for `CC(NC(=O)[C@H]1CC[C@H](NS(=O)(=O)c2ccc3c(c2)N(C)CCC3)CC1)c1cccnc1` (stereo partly shown) [Example 160, (1r,4r)-4-(1-methyl-1,2,3,4-tetrahydroquinoline-7-sulfonamido)-N-(1-(pyridin-3-yl)ethyl)cyclohexanecarboxamide] was 80 nM; that for `CC(NC(=O)[C@H]1CC[C@H](NS(=O)(=O)c2ccc3c(c2)N(C)CCC3)CC1)c1ccncc1` (stereo partly shown) [Example 161, (1r,4r)-4-(1-methyl-1,2,3,4-tetrahydroquinoline-7-sulfonamido)-N-(1-(pyridin-4-yl)ethyl)cyclohexanecarboxamide] was 340 nM; that for `CC(NC(=O)C1CCC(NS(=O)(=O)c2cnc3c(c2)NC2CCCCC2N3)CC1)c1ccc(F)cc1` [Example 162, (1S,4R)-N-((R)-1-(4-fluorophenyl)ethyl)-4-((5aS,9aS)-5,5a,6,7,8,9,9a,10-octahydropyrido[3,2-b]quinoxaline-3-sulfonamido)cyclohexanecarboxamide] was 125 nM.
As for `O=C(O)[C@@H]1CCCN(C(=O)[C@H]2CC[C@H](NS(=O)(=O)c3ccc4ccccc4c3)CC2)C1` [Example 163, (R)-1-((1r,4R)-4-(naphthalene-2-sulfonamido)cyclohexanecarbonyl)piperidine-3-carboxylic acid], the IC50 is 8520 nM.
As to `COC(=O)CN1CCCc2ccc(S(=O)(=O)N[C@H]3CC[C@H](C(=O)N[C@H](C)c4ccc(F)cc4)CC3)cc21` [Example 164, methyl 2-(7-(N-((1R,4r)-4-((R)-1-(4-fluorophenyl)ethylcarbamoyl)cyclohexyl)sulfamoyl)-3,4-dihydroquinolin-1(2H)-yl)acetate], the IC50 came to 350 nM.
With `Cc1cnc2c(S(=O)(=O)N[C@H]3CC[C@H](C(=O)N[C@H](C)c4ccc(F)cc4)CC3)cccc2c1` [Example 165, (1r,4R)-N-((R)-1-(4-fluorophenyl)ethyl)-4-(3-methylquinoline-8-sulfonamido)cyclohexanecarboxamide], the IC50 stood at 675 nM.
`C[C@@H](NC(=O)[C@H]1CC[C@H](NS(=O)(=O)c2ccc3c(c2)N(CC(=O)O)CCC3)CC1)c1ccc(F)cc1` [Example 166, 2-(7-(N-((1R,4r)-4-((R)-1-(4-fluorophenyl)ethylcarbamoyl)cyclohexyl)sulfamoyl)-3,4-dihydroquinolin-1(2H)-yl)acetic acid]: the IC50 came to 910 nM.
